{"source": "patent US20110028504A1", "about": "“Formulation of radioprotective alpha beta unsaturated aryl sulfones” (ONCONOVA THERAPEUTICS, INC., priority 2005, published 2011)", "assay_type_in_all_cases": "physicochemical", "key": {"[1]": {"assay": "pH stability testing at 75° C. (HPLC)", "details": "for Concentration of the ON.1210.Na determined by HPLC during the stability study: 75° C.", "protocol": "(§1) The drug is dissolved in different pH buffers as outlined in Table 20. One hundred mL of each solution is prepared in a volumetric flask. Each solution is filtered through a 0.22 um filter. Approximately, four mL of the above solution is placed in 5 ml ampoules and sealed by a propane torch. The pH of the solution is determined at time zero and at each time interval. All the ampoules are placed in a 75° C. constant temperature oven. Any color changes or precipitation in the solution during the sample collection is visually observed. Concentration of the drug is determined at time zero and other time intervals by HPLC.\nas §1, with “prepared in volumetric flask.” for “prepared in a volumetric flask.”, “filtered through 0.22 um” for “filtered through a 0.22 um”, “by HPLC. The pH and drug content of each sample are determined.” for “by HPLC.”\nThe data from the pH stability study is analyzed by plotting Log (conc.) versus time.\nThe rate constant for the degradation is determined using a linear regression at each individual pH."}, "[2]": {"assay": "pH solubility testing in McIlvaine type buffer", "details": "thermodynamic from solid, read-out: Observed Solubility (C5)", "protocol": "The solubility of ON.1210.Na salt is tested in McIlvaine type buffer with 0.1 M ionic strength. The buffers are prepared using the recipe mentioned in Table 17 The final pH is adjusted using 0.1N sodium hydroxide or 0.1N hydrochloric acid until the pH is within ±0.1 pH units of the target pH. The pKa of the drug calculated from pH-solubility study is depicted in Table 19. The solubility of the ON.1210.Na salt is tested in a McIlvaine type buffer with 0.1 M ionic strength. The buffers are prepared using the recipe mentioned in Table 16 using various volumes of 0.15 M citric acid monohydrate, and 0.2 M sodium phosphate dibasic, 12 hydrate. The final pH is adjusted using 0.1N sodium hydroxide or 0.1N hydrochloric acid until the pH is within ±0.1 pH units of the target pH. The samples for the pH solubility study are prepared by adding 10-20 mg of ON.1210.Na salt to a 4 mL vial. Then 1 mL of the appropriate pH buffer is added to the vial. The solution is mixed on a vortex genie for approximately 30 seconds. If the solution looks clear, additional drug is added. No additional drug is added to solutions which appear to be clear at a concentration of greater than 50 mg/mL. The study is done in duplicate. Once the solutions are prepared, the initial pH of the samples are measured. The solutions are then protected from light, and placed on a shaker. The solutions are agitated for 24 to 96 hours at ambient conditions. The vials are then removed from the orbital shaker, and the final pH of the solutions is measured for each sample. The solutions are then filtered, and analyzed by HPLC."}, "[3]": {"assay": "Saturated solubility in different solvent systems"}}, "note": "Marks after values point to notes of the source that are not given here.", "data": [{"smiles": "O=C([O-])c1ccc(/C=C/S(=O)(=O)Cc2ccc(Cl)cc2)cc1.[Na+]", "note": "[ON.1210.Na, (E)-4-Carboxystyryl-4-chlorobenzylsulfone, Sodium Salt]", "values": [{"measurement": "Concentration of the ON.1210.Na determined by HPLC during the stability study", "setting": "[1]; pH 7.4 buffer, 10 days, pH of the solution 7.42", "result": 473.2525, "unit": "µg/mL"}, {"measurement": "Concentration of the ON.1210.Na determined by HPLC during the stability study", "setting": "[1]; pH 7.4 buffer, 17 days, pH of the solution 7.41", "result": 466.5611, "unit": "µg/mL"}, {"measurement": "Concentration of the ON.1210.Na determined by HPLC during the stability study", "setting": "[1]; pH 7.4 buffer, 28 days, pH of the solution 7.2", "result": 434.5598, "unit": "µg/mL"}, {"measurement": "Concentration of the ON.1210.Na determined by HPLC during the stability study", "setting": "[1]; pH 7.4 buffer, 35 days, pH of the solution 7.34", "result": 428.5503, "unit": "µg/mL"}, {"measurement": "Concentration of the ON.1210.Na determined by HPLC during the stability study", "setting": "[1]; pH 7.4 buffer, 42 days, pH of the solution 7.36", "result": 416.3353, "unit": "µg/mL"}, {"measurement": "Concentration of the ON.1210.Na determined by HPLC during the stability study", "setting": "[1]; pH 7.4 buffer, 54 days, pH of the solution 7.31", "result": 403.267, "unit": "µg/mL"}, {"measurement": "Kobs, first order rate constant for the degradation", "setting": "[1]; pH 8.0, 75° C.", "result": 0.0064, "unit": "day⁻¹"}, {"measurement": "Concentration of the ON.1210.Na determined by HPLC during the stability study", "setting": "[1]; pH 8.0 buffer, 0 hours, pH of the solution 8.01", "result": 494.8540, "unit": "µg/mL"}, {"measurement": "Concentration of the ON.1210.Na determined by HPLC during the stability study", "setting": "[1]; pH 8.0 buffer, 1 day, pH of the solution 8.08", "result": 493.8002, "unit": "µg/mL"}, {"measurement": "Concentration of the ON.1210.Na determined by HPLC during the stability study", "setting": "[1]; pH 8.0 buffer, 3 days, pH of the solution 8.04", "result": 485.8134, "unit": "µg/mL"}, {"measurement": "Concentration of the ON.1210.Na determined by HPLC during the stability study", "setting": "[1]; pH 8.0 buffer, 5 days, pH of the solution 7.98", "result": 486.042, "unit": "µg/mL"}, {"measurement": "Concentration of the ON.1210.Na determined by HPLC during the stability study", "setting": "[1]; pH 8.0 buffer, 10 days, pH of the solution 7.98", "result": 462.5487, "unit": "µg/mL"}, {"measurement": "Concentration of the ON.1210.Na determined by HPLC during the stability study", "setting": "[1]; pH 8.0 buffer, 17 days, pH of the solution 8.02", "result": 441.454, "unit": "µg/mL"}, {"measurement": "Concentration of the ON.1210.Na determined by HPLC during the stability study", "setting": "[1]; pH 8.0 buffer, 28 days, pH of the solution 7.81", "result": 398.9563, "unit": "µg/mL"}, {"measurement": "Concentration of the ON.1210.Na determined by HPLC during the stability study", "setting": "[1]; pH 8.0 buffer, 35 days, pH of the solution 7.33, new degradation product with retention time 4.52 min", "result": "249.7589** μg/mL"}, {"measurement": "Concentration of the ON.1210.Na determined by HPLC during the stability study", "setting": "[1]; pH 8.0 buffer, 42 days, pH of the solution 7.36", "result": 378.4188, "unit": "µg/mL"}, {"measurement": "Concentration of the ON.1210.Na determined by HPLC during the stability study", "setting": "[1]; pH 8.0 buffer, 54 days, pH of the solution 7.9", "result": 353.5676, "unit": "µg/mL"}, {"measurement": "Kobs, first order rate constant for the degradation", "setting": "[1]; pH 9.0, 75° C.", "result": 0.0104, "unit": "day⁻¹"}, {"measurement": "Concentration of the ON.1210.Na determined by HPLC during the stability study", "setting": "[1]; pH 9.0 buffer, 0 hours, pH of the solution 9.02", "result": 475.7458, "unit": "µg/mL"}, {"measurement": "Concentration of the ON.1210.Na determined by HPLC during the stability study", "setting": "[1]; pH 9.0 buffer, 1 day, pH of the solution 9.1", "result": 463.3368, "unit": "µg/mL"}, {"measurement": "Concentration of the ON.1210.Na determined by HPLC during the stability study", "setting": "[1]; pH 9.0 buffer, 3 days, pH of the solution 9.12", "result": 436.1314, "unit": "µg/mL"}, {"measurement": "Concentration of the ON.1210.Na determined by HPLC during the stability study", "setting": "[1]; pH 9.0 buffer, 5 days, pH of the solution 8.72", "result": 422.51, "unit": "µg/mL"}, {"measurement": "Concentration of the ON.1210.Na determined by HPLC during the stability study", "setting": "[1]; pH 9.0 buffer, 10 days, pH of the solution 8.74", "result": 379.1650, "unit": "µg/mL"}, {"measurement": "Concentration of the ON.1210.Na determined by HPLC during the stability study", "setting": "[1]; pH 9.0 buffer, 17 days, pH of the solution 8.75", "result": 351.6448, "unit": "µg/mL"}, {"measurement": "Concentration of the ON.1210.Na determined by HPLC during the stability study", "setting": "[1]; pH 9.0 buffer, 28 days, pH of the solution 8.53", "result": 304.3917, "unit": "µg/mL"}, {"measurement": "Concentration of the ON.1210.Na determined by HPLC during the stability study", "setting": "[1]; pH 9.0 buffer, 35 days, pH of the solution 8.46, two new degradation products with retention time of 4.52 and 3.6 minutes", "result": "199.584*** μg/mL"}, {"measurement": "Concentration of the ON.1210.Na determined by HPLC during the stability study", "setting": "[1]; pH 9.0 buffer, 42 days, pH of the solution 8.45", "result": 300.1106, "unit": "µg/mL"}, {"measurement": "Concentration of the ON.1210.Na determined by HPLC during the stability study", "setting": "[1]; pH 9.0 buffer, 54 days, pH of the solution 8.47", "result": 267.741, "unit": "µg/mL"}, {"measurement": "Solubility", "setting": "[2]; pH 4, aqueous buffer", "result": 0.000154, "unit": "mg/mL"}, {"measurement": "Solubility", "setting": "[2]; pH 5, aqueous buffer", "result": 0.0379, "unit": "mg/mL"}, {"measurement": "Solubility", "setting": "[2]; pH 6, aqueous buffer", "result": 0.715, "unit": "mg/mL"}, {"measurement": "Solubility", "setting": "[2]; pH 7.4, aqueous buffer", "result": 11.1, "unit": "mg/mL"}, {"measurement": "Solubility", "setting": "[2]; pH 8, aqueous buffer", "result": 16.8, "unit": "mg/mL"}, {"measurement": "Solubility", "setting": "[2]; pH 9, aqueous buffer", "result": 23.3, "unit": "mg/mL"}, {"measurement": "Solubility", "setting": "[3]; 0.25% Tween 80 in phosphate buffer, pH of solution 8.45", "result": 9.5, "unit": "mg/mL"}, {"measurement": "Solubility", "setting": "[3]; 0.5% Tween 80 in phosphate buffer, pH of solution 8.41", "result": 9.8, "unit": "mg/mL"}, {"measurement": "Solubility", "setting": "[3]; 1% Tween 80 in phosphate buffer, pH of solution 8.45", "result": 8.9, "unit": "mg/mL"}, {"measurement": "Solubility", "setting": "[3]; 2% Tween 80 in phosphate buffer, pH of solution 8.39", "result": 9.7, "unit": "mg/mL"}, {"measurement": "Solubility", "setting": "[3]; 2% tween 80 in water, pH of solution 8.78", "result": 9, "unit": "mg/mL"}, {"measurement": "Solubility", "setting": "[3]; 10% cyclodextran, 24 hours of equilibration, pH of solution 8.14", "result": 46, "unit": "mg/mL"}, {"measurement": "Solubility", "setting": "[3]; 10% cyclodextran, 48 hours of equilibration, pH of solution 8.41", "result": 41, "unit": "mg/mL"}, {"measurement": "Solubility", "setting": "[3]; 50% PEG400:water, pH of solution 7.53", "result": 40, "unit": "mg/mL"}, {"measurement": "Solubility", "setting": "[3]; 50:50 PEG400:ethanol, pH of solution 8.46", "result": 37, "unit": "mg/mL"}, {"measurement": "Solubility", "setting": "[3]; PEG300 (IP10 g/kg), pH of solution 8.21", "result": 52.04, "unit": "mg/mL"}]}]}
